{
  "source": "patent US20130059787A1",
  "about": "“METHODS OF USING HUMAN PROTEIN KINASE C DELTA VIII AS A BIOMARKER” (UNITED STATES DEPARTMENT OF VETERAN AFFAIRS, priority 2010, published 2013)",
  "test_system": "SR proteins",
  "assay": "Western blot of NT2 whole cell lysates with mAb104 antibody",
  "assay_type": "cell-based, human",
  "conditions": "RA about 10 μM, about 24 h; NT2 cells",
  "experimental": "FIG. 6 is a series of images illustrating the detection of SR proteins involved in RA-mediated PKXδVIII expression. NT2 cells were treated with RA (about 10 μM) for about 24 h or without RA (control), and Western blot analysis was performed on whole cell lysates using (a) mAb104 antibody that detects all SR proteins and (b) specific antibodies as indicated in the figure. Molecular masses are indicated (kDa).\nCell lysates (about 40 μg) were separated on 10% SDS-PAGE. […] In apoptotic cells, PARP is cleaved by caspase 3 into an 85 kDa fragment which is detected in addition to the 116 KDa fragment using anti-PARP antibody in western blot analysis. […] (Putt K S, Beilman G J, and H. P J., Direct quantitation of poly(ADP-ribose) polymerase (PARP) activity as a means to distinguish necrotic and apoptotic death in cell and tissue samples. Chembiochem, 2005. 6: p. 53-55)\n(SR) proteins that bind to exonic or intronic splicing enhancers (ESE, ISE) on the pre-mRNA. […] NT2 cells were treated with or without RA (about 24 h), and whole cell lysates were analyzed by Western blot analysis using mAb104 antibody that simultaneously detects the phosphoepitopes on all SR proteins. […]",
  "data": [
    {"smiles": "CC1=C(/C=C/C(C)=C/C=C/C(C)=C/C(=O)O)C(C)(C)CCC1", "note": "[RA, all-trans-retinoic acid]", "values": [
      {"measurement": "SR protein at ~30 kDa expression (mAb104)", "value": "increased in expression"}
    ]}
  ]
}
